Laboratory results taken from ChEMBL document CHEMBL2203232, “Design and discovery of new (3S,5R)-5-[4-(2-chlorophenyl)-2,2-dimethyl-5-oxopiperazin-1-yl]piperidine-3-carboxamides as potent renin inhibitors” (Bioorg Med Chem Lett, 2012).
Residue numbers refer to the chain shown, from its start. Active and inactive are the calls of the source. No cut-off for these calls is given here.

Legend:
Renin [1] = target: T1, Renin (Homo sapiens, UniProt P00797); assay: Inhibition of recombinant human renin using Arg-Glu(EDANS)-Ile-His-Pro-Phe-His-Leu-Val-Ile-His-Thr-Lys(DABCYL)-Arg as substrate incubated for 10 mins prior to substrate addition measured after 90 mins by fluorimetric analysis
T1 sequence (P00797 whole entry): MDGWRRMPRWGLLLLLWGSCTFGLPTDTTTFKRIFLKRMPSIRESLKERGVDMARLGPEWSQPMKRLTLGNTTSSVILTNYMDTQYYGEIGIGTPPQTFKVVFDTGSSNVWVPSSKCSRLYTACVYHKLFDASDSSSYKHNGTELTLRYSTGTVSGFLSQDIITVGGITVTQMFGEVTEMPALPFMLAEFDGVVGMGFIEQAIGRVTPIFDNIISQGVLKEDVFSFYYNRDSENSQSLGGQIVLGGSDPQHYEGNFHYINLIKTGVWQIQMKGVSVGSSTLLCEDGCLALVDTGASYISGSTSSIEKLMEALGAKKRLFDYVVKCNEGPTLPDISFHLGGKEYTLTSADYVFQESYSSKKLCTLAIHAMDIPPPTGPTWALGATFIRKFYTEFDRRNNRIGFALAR

Renin [2] = target: T2, Renin (Macaca fascicularis, UniProt Q6DLS0); assay: Inhibition of renin in cynomolgus monkey plasma after 60 mins by competitive radioimmunoassay
T2 sequence (Q6DLS0 whole entry): T1 sequence (P00797 whole entry) with T68A, I214L, S235A

[3] = Cmax in Sprague-Dawley rat at 10 mg/kg, po; assay type: ADME, organism-based; parameters: dose 10 mg/kg, route oral; details: in vivo
Rattus norvegicus = assay: Antihypertensive activity in transgenic rat expressing human angiotensin and renin assessed as reduction in mean arterial blood pressure at 10 mg/kg, po measured up to 24 hrs; assay type: functional, organism-based; parameters: dose 10 mg/kg; details: Artery
[4] = Clearance in Sprague-Dawley rat at 1 mg/kg, iv; assay type: ADME, organism-based; parameters: dose 1 mg/kg, route intravenous; details: in vivo
[5] = AUC (0 to 24 hrs) in Sprague-Dawley rat at 10 mg/kg, po; assay type: ADME, organism-based; parameters: time < 24 hr, dose 10 mg/kg, route oral; details: plasma
[6] = Oral bioavailability in Sprague-Dawley rat at 10 mg/kg; assay type: ADME, organism-based; details: in vivo
[7] = Half life in Sprague-Dawley rat at 1 mg/kg, iv; assay type: ADME, organism-based; parameters: dose 1 mg/kg, route intravenous; details: in vivo
[8] = Volume of distribution at steady state in Sprague-Dawley rat at 1 mg/kg, iv; assay type: ADME, organism-based; parameters: dose 1 mg/kg, route intravenous; details: in vivo, read-out: Vdss

SMILES | IC50 (Renin [1]) | IC50 (Renin [2]) | further results
CC[C@@H](NC(=O)[C@@H]1CNC[C@H](N2CC(=O)N(c3ccccc3Cl)CC2(C)C)C1)c1ccccc1 | 2.1 nM | 6.6 nM | 
CCC[C@@H](NC(=O)[C@@H]1CNC[C@H](N2CC(=O)N(c3ccccc3Cl)CC2(C)C)C1)c1ccccc1 | 2.5 nM | 18 nM | 
CC(C)C[C@@H](NC(=O)[C@@H]1CNC[C@H](N2CC(=O)N(c3ccccc3Cl)CC2(C)C)C1)c1cccnc1 | 2.1 nM | 4.2 nM | 
CC(C)C[C@@H](NC(=O)[C@@H]1CNC[C@H](N2CC(=O)N(c3ccccc3Cl)CC2(C)C)C1)C(=O)N(C)C | 8.4 nM | 23 nM | 
CC(C)CCNC(=O)[C@@H]1CNC[C@H](N2CC(=O)N(c3ccccc3Cl)CC2(C)C)C1 |  | 54 nM | 
CC(C)C[C@@H](NC(=O)[C@@H]1CNC[C@H](N2CC(=O)N(c3ccccc3Cl)CC2(C)C)C1)c1ccccc1 | 2.1 nM | 9 nM | 
CCOC[C@@H](CC(C)C)NC(=O)[C@@H]1CNC[C@H](N2CC(=O)N(c3ccccc3Cl)CC2(C)C)C1.O=C(O)/C=C/C(=O)O | 1.3 nM | 1.4 nM | Cmax [3]: 540 ng/mL; Activity (Rattus norvegicus): Active; clearance [4]: 31 mL/min/kg; AUC(0-t) at 24 h [5]: 1940 ng·h/mL; bioavailability [6]: 45%; half-life [7]: 3.2 h; Vd [8]: 5.8 L/kg
CC(C)CCNC(=O)[C@@H]1CNC[C@H](CN2CC(=O)N(c3ccccc3Cl)CC2(C)C)C1 |  | > 1000 nM | 
CC(C)C[C@@H](NC(=O)[C@@H]1CNC[C@H](N2CC(=O)N(c3ccccc3Cl)CC2(C)C)C1)C(O)C(C)C (stereo in doubt; 13) | 2.3 nM | 4.8 nM | 
CC[C@H](CC(C)C)NC(=O)[C@@H]1CNC[C@H](N2CC(=O)N(c3ccccc3Cl)CC2(C)C)C1 | 2.8 nM | 16 nM | 
CC(C)CCNC(=O)[C@@H]1CNC[C@H](C(=O)N2CC(=O)N(c3ccccc3Cl)CC2(C)C)C1 | > 1000 nM | > 1000 nM | 
CC(C)CC(CC(C)C)NC(=O)[C@@H]1CNC[C@H](N2CC(=O)N(c3ccccc3Cl)CC2(C)C)C1 |  | 10 nM | 
CC(C)C[C@@H](NC(=O)[C@@H]1CNC[C@H](N2CC(=O)N(c3ccccc3Cl)CC2(C)C)C1)C(O)C(C)C (stereo in doubt; 14) | 2.5 nM | 7.5 nM | 
